Consider four molecules from patent publication US9993424B2, “Intravaginal matrix drug delivery devices” (Allergan Pharmaceuticals International Limited, priority 2002, dated 2018).

In brackets after ≈: the same amount, converted by molar mass. Where only a bound is given, the exact number is not on record here.

Broadly, the solubility is the concentration that dissolves in the medium under given conditions. Read a low solubility as a poorly soluble substance.

The data set is described as follows: Solubility in silicone oil at 25° C. The conditions noted are these: oil or lipid.
`Nc1nc2c(ncn2COCCO)c(=O)[nH]1` [acyclovir] came in with a solubility of under 80 µg/mL. As to `C[C@]12CC[C@H]3[C@@H](CCC4=CC(=O)CC[C@@]43C)[C@@H]1CC[C@@H]2O` [testosterone], the solubility is 140 µg/mL (≈ 485 µM). With `CC(C)N1CCN(c2ccc(OCC3COC(Cn4cncn4)(c4ccc(Cl)cc4Cl)O3)cc2)CC1` (stereo not shown) [terconazole] the figure was 200 µg/mL (≈ 376 µM); with `Cc1ncc([N+](=O)[O-])n1CCO` [metronidazole], 6 µg/mL (≈ 35.1 µM).
